This experiment addresses T1, recombinant 15-PGDH (Homo sapiens, UniProt P15428).
T1 sequence (P15428 1-266): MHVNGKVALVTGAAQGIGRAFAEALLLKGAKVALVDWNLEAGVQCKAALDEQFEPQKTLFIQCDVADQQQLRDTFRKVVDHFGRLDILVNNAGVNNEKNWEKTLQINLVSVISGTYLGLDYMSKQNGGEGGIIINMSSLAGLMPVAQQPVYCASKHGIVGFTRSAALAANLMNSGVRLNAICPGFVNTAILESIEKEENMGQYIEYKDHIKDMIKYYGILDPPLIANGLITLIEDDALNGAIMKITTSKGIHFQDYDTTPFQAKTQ
Format: biochemical. As to conditions: recombinant human 15-PGDH, in vitro; read-out: PDGH Assay-IC50.

A word on the IC50: it is the concentration at which inhibition is half-maximal.

Text: The Recombinant 15-PGDH is human unless otherwise specified.

With `Cn1nccc1-c1cc(-c2cnc(NCCO)nc2)nc2sc([S+]([O-])C3CCC3)c(N)c12` (stereo not shown) [Example 312], the concentration for half-maximal inhibition (IC50) is < 2.5 nM.

For `COCCNc1ncc(-c2cc(-c3ncccn3)c3c(N)c([S+]([O-])C4CCC4)sc3n2)cn1` (stereo not shown) [Example 232], the IC50 is < 2.5 nM.

Take `Cn1cc2cc(-c3cc(-c4ccc(OCCO)cc4)c4c(N)c([S+]([O-])C5CCC5)sc4n3)cnc2n1` (stereo not shown) [Example 283]: the IC50 was < 2.5 nM.

`COCC[S+]([O-])c1sc2nc(-c3cn[nH]c(=O)c3)cc(-c3ccccc3)c2c1N` (stereo not shown) [Example 394]: the IC50 is < 2.5 nM.

For the compound `Nc1c([S+]([O-])C2CCC2)sc2nc(-c3cnc(NCCN4CCS(=O)(=O)CC4)nc3)cc(-c3ccccc3)c12` (stereo not shown) [Example 142], the IC50 is < 2.5 nM.

As for `Nc1c([S+]([O-])C2CCC2)sc2nc(-c3cncnc3)cc(-c3ccc(C4COC4)cc3)c12` (stereo not shown) [Example 114], the IC50 is < 2.5 nM.

Take `COCCC[S@@+]([O-])c1sc2nc(-c3cncnc3)cc(-c3cnccn3)c2c1N` [Example 234]: the IC50 was ≥ 10 nM.

As for `COCC[S@+]([O-])c1sc2nc(-c3cnc(N)nc3)cc(-c3ccccc3)c2c1N` [Example 88], the IC50 is ≥ 10 nM.

`Nc1c([S+]([O-])C2CCC2)sc2nc(-c3cnc(NCCOCCO)nc3)cc(-c3ccccc3)c12` (stereo not shown) [Example 141]: the IC50 is < 2.5 nM.

Consider `COCCC[S+]([O-])c1sc2nc(-c3cnn(C)c3)cc(C(F)(F)F)c2c1N` (stereo not shown) [Example 427], for which the IC50 was < 2.5 nM.

`Cn1ccc(-c2cc(-c3cnc4nn(C)cc4c3)nc3sc([S+]([O-])C4CCC4)c(N)c23)n1` (stereo not shown) [Example 341]: the IC50 was < 2.5 nM.

For the compound `COCCC[S+]([O-])c1sc2nc(-c3cnc4nn(CCO)cc4c3)cc(C3CCC3)c2c1N` (stereo not shown) [Example 270], the IC50 was < 2.5 nM.

With `CC1(O)CN(c2ncc(-c3cc(-c4ccccc4)c4c(N)c([S+]([O-])C5CCC5)sc4n3)cn2)C1` (stereo not shown) [Example 411], the IC50 lay within 2.5 to 10 nM.

Consider `COCCC[S+]([O-])c1sc2nc(-c3cnn(C)c3)cc(C3CC3)c2c1N` (stereo not shown) [Example 278], for which the IC50 is < 2.5 nM.

Consider `Nc1c([S+]([O-])C2CCC2)sc2nc(-c3cnc(NCCO)nc3)cc(-c3cncc(F)c3)c12` (stereo not shown) [Example 115], for which the IC50 was < 2.5 nM.

With `Cn1nc2cc(-c3cc(-c4ccnn4C)c4c(N)c([S+]([O-])C5CCC5)sc4n3)cnc2n1` (stereo not shown) [Example 378], the IC50 was < 2.5 nM.

Consider `Nc1c([S+]([O-])C2CCC2)sc2nc(-c3cncnc3)cc(-c3ccno3)c12` (stereo not shown) [Example 311], for which the IC50 was < 2.5 nM.

As for `Nc1c([S+]([O-])C2CCC2)sc2nc(-c3cnc4ncnn4c3)cc(-c3ccccc3)c12` (stereo not shown) [Example 401], the IC50 is < 2.5 nM.

For the compound `COCC[S@+]([O-])c1sc2nc(-c3cncnc3)cc(-c3ccccc3)c2c1N` [Example 86], the IC50 was ≥ 10 nM.

In the case of `COCCC[S+]([O-])c1sc2nc(-c3cnn(CCO)c3)cc(-c3ccccc3)c2c1N` (stereo not shown) [Example 274], the IC50 is < 2.5 nM.

`Nc1c([S@@+]([O-])C2CCC2)sc2nc(-c3cncnc3)cc(-c3ccon3)c12` [Example 310]: the IC50 was ≥ 10 nM.

For `CNc1ncc(-c2cc(-c3ncccn3)c3c(N)c([S+]([O-])C4CCC4)sc3n2)cn1` (stereo not shown) [Example 329], the IC50 is < 2.5 nM.

With `COCC[S+]([O-])c1sc2nc(-c3cnc4ncn(C)c4c3)cc(-c3ccccc3)c2c1N` (stereo not shown) [Example 364], the IC50 was < 2.5 nM.

Consider `COCC[S+]([O-])c1sc2nc(-c3cncnc3)cc(C3CC3)c2c1N` (stereo not shown) [Example 109], for which the IC50 is < 2.5 nM.

As to `Nc1c([S+]([O-])C2CCC2)sc2nc(-c3cnn(CCO)c3)cc(-c3ccccc3)c12` (stereo not shown) [Example 272], the IC50 is < 2.5 nM.

Consider `Nc1c([S@@+]([O-])C2CCC2)sc2nc(-c3cnc(NCCO)nc3)cc(-c3cccnc3)c12` [Example 104], for which the IC50 is ≥ 10 nM.

Take `COCCC[S@@+]([O-])c1sc2nc(-c3cncnc3)cc(C3CC3)c2c1N` [Example 153]: the IC50 was < 2.5 nM.

On to `COCCC[S@+]([O-])c1sc2nc(-c3cncnc3)cc(-c3ncccn3)c2c1N` [Example 112], for which the IC50 is ≥ 10 nM.

For the compound `COCC[S+]([O-])c1sc2nc(-c3cnn4ccnc4c3)cc(-c3ccnn3C)c2c1N` (stereo not shown) [Example 318], the IC50 is < 2.5 nM.

For the compound `Nc1c([S@@+]([O-])C2CCC2)sc2nc(-c3cnc(NCCOCCO)nc3)cc(-c3ccccc3)c12` [Example 185], the IC50 is ≥ 10 nM.

On to `Nc1ncc(-c2cc(-c3ccc(C4COC4)cc3)c3c(N)c([S+]([O-])C4CCC4)sc3n2)cn1` (stereo not shown) [Example 143], for which the IC50 was < 2.5 nM.

With `Nc1c([S+]([O-])C2CCC2)sc2nc(-c3cnc(NCCO)nc3)cc(-c3cccc(Cl)c3)c12` (stereo not shown) [Example 192], the IC50 was < 2.5 nM.

Turning to `Cn1cc(-c2cc(-c3ccc(OCCO)cc3)c3c(N)c([S+]([O-])C4CCC4)sc3n2)cn1` (stereo not shown) [Example 412], the IC50 is < 2.5 nM.

For `Nc1c([S+]([O-])C2CCC2)sc2nc(-c3cnc(NCC(=O)O)nc3)cc(-c3ccccc3)c12` (stereo not shown) [Example 155], the IC50 is < 2.5 nM.

Take `COCCC[S+]([O-])c1sc2nc(-c3cnc(N)nc3)cc(C(F)(F)F)c2c1N` (stereo not shown) [Example 133]: the IC50 is < 2.5 nM.

In the case of `Nc1c([S+]([O-])C2CCC2)sc2nc(-c3cnc(NCCO)nc3)cc(-c3ccc(F)cn3)c12` (stereo not shown) [Example 118], the IC50 lay in the range of 2.5 to 10 nM.

With `COCCC[S+]([O-])c1sc2nc(-c3cnc4c(cnn4C)c3)cc(-c3cccnc3)c2c1N` (stereo not shown) [Example 74], the IC50 is < 2.5 nM.

For the compound `COCCC[S+]([O-])c1sc2nc(-c3cnc4c(cnn4CCO)c3)cc(-c3ccccc3)c2c1N` (stereo not shown) [Example 301], the IC50 lay in the range of 2.5 to 10 nM.

In the case of `Nc1c([S+]([O-])C2CCC2)sc2nc(-c3cnc(NCCO)nc3)cc(-c3ccccc3F)c12` (stereo not shown) [Example 152], the half-inhibitory concentration (IC50) was < 2.5 nM.

Regarding `COCC[S@@+]([O-])c1sc2nc(-c3cnc(N)nc3)cc(C3CC3)c2c1N` [Example 150], the IC50 is < 2.5 nM.

As for `Nc1c([S+]([O-])C2CCC2)sc2nc(-c3cnc4nn(CCO)cc4c3)cc(C3CCC3)c12` (stereo not shown) [Example 348], the IC50 fell in the range of 2.5 to 10 nM.

Consider `Cn1nccc1-c1cc(-c2cnc(NCCO)nc2)nc2sc([S@@+]([O-])C3CCC3)c(N)c12` [Example 314], for which the IC50 is ≥ 10 nM.

On to `COCCC[S+]([O-])c1sc2nc(-c3cnc(N)nc3)cc(C3CC3)c2c1N` (stereo not shown) [Example 107], for which the concentration for half-maximal inhibition (IC50) was < 2.5 nM.

`Nc1c([S+]([O-])C2CCC2)sc2nc(-c3cnc(NCCO)nc3)cc(-c3cccc(F)c3)c12` (stereo not shown) [Example 157]: the IC50 was < 2.5 nM.

For `COCC[S+]([O-])c1sc2nc(-c3cnc4c(c3)CNC4=O)cc(-c3ccccc3)c2c1N` (stereo not shown) [Example 241], the IC50 is < 2.5 nM.

Regarding `Cn1cc(-c2cc(-c3ccc(OCCO)cc3)nc3sc([S+]([O-])C4CCC4)c(N)c23)cn1` (stereo not shown) [Example 413], the IC50 was < 2.5 nM.

In the case of `COCCC[S+]([O-])c1sc2nc(-c3cnc4nn(C)cc4c3)cc(C(F)(F)F)c2c1N` (stereo not shown) [Example 420], the IC50 is < 2.5 nM.

In the case of `Nc1c([S+]([O-])C2CCC2)sc2nc(-c3cncnc3)cc(-c3cccnc3)c12` (stereo not shown) [Example 84], the IC50 was < 2.5 nM.

On to `CN(CCO)c1ncc(-c2cc(-c3ccccc3)c3c(N)c([S@+]([O-])C4CCC4)sc3n2)cn1` [Example 179], for which the IC50 is < 2.5 nM.

Consider `Nc1ncc(-c2cc(-c3ccc(F)cn3)c3c(N)c([S+]([O-])C4CCC4)sc3n2)cn1` (stereo not shown) [Example 66], for which the IC50 was < 2.5 nM.

As for `COCC[S@@+]([O-])c1sc2nc(-c3cnc4nn(C)cc4c3)cc(-c3ccn(C)n3)c2c1N` [Example 343], the IC50 is < 2.5 nM.

Regarding `Nc1c([S+]([O-])C2CCC2)sc2nc(-c3cnc(C(=O)NCCO)nc3)cc(-c3ccccc3)c12` (stereo not shown) [Example 129], the IC50 is < 2.5 nM.

As for `COCC[S@+]([O-])c1sc2nc(-c3cnc4ncn(C)c4c3)cc(C3CCC3)c2c1N` [Example 367], the 50% inhibitory concentration (IC50) is ≥ 10 nM.

With `COCC[S@@+]([O-])c1sc2nc(-c3cnc4nn(C)cc4c3)cc(C(C)C)c2c1N` [Example 408], the IC50 was < 2.5 nM.

Consider `COCC[S@@+]([O-])c1sc2nc(-c3cncnc3)cc(C3CCC3)c2c1N` [Example 252], for which the IC50 was < 2.5 nM.

On to `COCC[S+]([O-])c1sc2nc(-c3cncnc3)cc(-c3ccccc3)c2c1N` (stereo not shown) [Example 72], for which the IC50 is < 2.5 nM.

Consider `CS(=O)(=O)Nc1ncc(-c2cc(-c3cccnc3)c3c(N)c([S+]([O-])C4CCC4)sc3n2)cn1` (stereo not shown) [Example 93], for which the IC50 is < 2.5 nM.

With `Cn1cc2cc(-c3cc(-c4ccnn4C)c4c(N)c([S+]([O-])C5CCC5)sc4n3)cnc2n1` (stereo not shown) [Example 333], the IC50 is < 2.5 nM.

With `Nc1ncc(-c2cc(-c3cncc(F)c3)c3c(N)c([S+]([O-])C4CCC4)sc3n2)cn1` (stereo not shown) [Example 67], the IC50 is < 2.5 nM.

Regarding `CC(C)(C)[S+]([O-])c1sc2nc(-c3cnc(NCCO)nc3)cc(C3CCC3)c2c1N` (stereo not shown) [Example 353], the IC50 was 2.5 to 10 nM.

With `Nc1c([S@+]([O-])C2CCC2)sc2nc(-c3cnc(NCCO)nc3)cc(C(F)(F)F)c12` [Example 205], the IC50 was < 2.5 nM.

On to `COCC[S+]([O-])c1sc2nc(-c3cncnc3)cc(C(F)(F)F)c2c1N` (stereo not shown) [Example 130], for which the IC50 is < 2.5 nM.

In the case of `Nc1c([S+]([O-])C2CCC2)sc2nc(-c3cnc(N4CC(O)C4)nc3)cc(C3CC3)c12` (stereo not shown) [Example 250], the IC50 is < 2.5 nM.

Consider `COCCC[S+]([O-])c1sc2nc(-c3cncnc3)cc(-c3ccnc(C)c3)c2c1N` (stereo not shown) [Example 119], for which the IC50 is < 2.5 nM.

On to `Cc1cc(-c2cc(-c3cncnc3)nc3sc([S+]([O-])C4CCC4)c(N)c23)n(C)n1` (stereo not shown) [Example 356], for which the IC50 was < 2.5 nM.

As to `CN(C)CCOc1ccc(-c2cc(-c3ccccc3)c3c(N)c([S+]([O-])C4CCC4)sc3n2)cn1` (stereo not shown) [Example 60], the IC50 was in the range of 2.5 to 10 nM.

Take `Nc1c([S+]([O-])C2CCC2)sc2nc(-c3cncnc3)cc(-c3cc[nH]n3)c12` (stereo not shown) [Example 307]: the IC50 is < 2.5 nM.
